Data on 14 compounds can be found in US11834453B2, “Substituted pyrimido[5,4-d]pyrimidines as HER2 inhibitors” (Array BioPharma Inc., priority 2020, dated 2023).

Data set [1] has as its target ErbB2 insYVMA (HER2-YVMA, SEQ ID NO: 2) (Homo sapiens, UniProt P04626, INS775YVMA/P1170A). Nature of the data set: biochemical. The following applies: ErbB2 insYVMA enzyme assay; read-out: Assay 1 IC50.
The target in the next data set is EGFR (Homo sapiens (Human), UniProt P00533). The data set is described as follows: ErbB enzyme assay (CisBio HTRF KinEASE-TK), Assay 3. It counts as biochemical. In outline: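 First, enzyme was reacted with compound, 1 mM ATP and 250 nM biotinylated tyrosine-kinase peptide for 30 min at 22 °C at pH 7.4. Next, streptavidin-XL665 and cryptate antibody were added for 1 h. Finally, HTRF ratios were converted to POC and fitted to yield IC50.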
(In general: Time-resolved FRET reads energy transfer from a long-lived donor to a nearby acceptor.)

Another data set addresses ErbB2 WT (Homo sapiens (Human), UniProt P04626). Nature of the data set: ErbB enzyme assay (CisBio HTRF KinEASE-TK), Assay 2. It is filed as biochemical. In outline: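 Readout is HTRF KinEASE-TK, using Sa-XL665 and cryptate antibody for 1 h at 22 °C, as percent of control between DMSO-only (100) and pre-quenched (0) reactions. The kinase reaction runs 30 min at 22 °C with 1 mM ATP and 250 nM biotinylated TK substrate, in HEPES pH 7.4 with MgCl2 and 2% DMSO.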

The target in a further data set is EGFR wild type (EGFR WT) (Homo sapiens (Human), UniProt P00533). Nature of the data set: Cellular phosphorylation assay, EGF-stimulated EGFR phosphorylation in engineered NIH 3T3 cells, Phospho-EGFR DuoSet IC ELISA, Assay 5. It counts as cell-based. In a few lines:
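Phospho-EGFR ELISA on lysates of engineered NIH 3T3 EGFR WT cells, IC50 derived from concentration curves. Cells plated at 20,000/well overnight, given compound dilutions 1 h at 37 °C, then rEGF 100 ng/ml for a further 10 min before lysis.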
(An ELISA detects its analyte on a solid surface through an enzyme-linked reagent.)

The target of a further data set is MDR1 (P-gp) (Homo sapiens (Human), UniProt P08183). The data set is described as follows: MDR1 transfected LLC-PK1 permeability/efflux, Assay 6. The note with it: efflux ratio Papp(B-A)/Papp(A-B), MDR1 transfected LLC-PK1; for efflux ratio at 2 h, 1 μM: pig, LLC-PK1, Assay 6 Pe Ratio.
Another data set concerns the target BCRP (Homo sapiens (Human), UniProt Q9UNQ0). The data set is described as follows: BCRP transfected MDCKII canine Mdr1 knockout permeability/efflux, Assay 9. The following applies: efflux ratio Papp(B-A)/Papp(A-B), BCRP transfected MDCKII canine Mdr1 knockout; for efflux ratio at 2 h, 1 μM: dog, Assay 9 Pe Ratio.
Data set [2] addresses ErbB2 with Exon 20 YVMA insertion (HER2-YVMA) (Homo sapiens (Human), UniProt P04626, INS775YVMA). The data set is described as follows: Cellular phosphorylation assay, constitutive ErbB2 phosphorylation (Y1196) in engineered NIH 3T3 cells, Assay 4. It counts as cell-based. In a few lines:
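In-cell Western in NIH 3T3 cells carrying ErbB2 exon 20 YVMA insertion, with no ligand stimulation. One hour compound exposure at 37 °C before fixation and anti-pY1196 plus GAPDH staining with dual-wavelength fluorescence. IC50 derived after GAPDH normalization.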

Where only a bound is given, the exact number is not on record here.

Sequence of BCRP (Q9UNQ0 whole entry): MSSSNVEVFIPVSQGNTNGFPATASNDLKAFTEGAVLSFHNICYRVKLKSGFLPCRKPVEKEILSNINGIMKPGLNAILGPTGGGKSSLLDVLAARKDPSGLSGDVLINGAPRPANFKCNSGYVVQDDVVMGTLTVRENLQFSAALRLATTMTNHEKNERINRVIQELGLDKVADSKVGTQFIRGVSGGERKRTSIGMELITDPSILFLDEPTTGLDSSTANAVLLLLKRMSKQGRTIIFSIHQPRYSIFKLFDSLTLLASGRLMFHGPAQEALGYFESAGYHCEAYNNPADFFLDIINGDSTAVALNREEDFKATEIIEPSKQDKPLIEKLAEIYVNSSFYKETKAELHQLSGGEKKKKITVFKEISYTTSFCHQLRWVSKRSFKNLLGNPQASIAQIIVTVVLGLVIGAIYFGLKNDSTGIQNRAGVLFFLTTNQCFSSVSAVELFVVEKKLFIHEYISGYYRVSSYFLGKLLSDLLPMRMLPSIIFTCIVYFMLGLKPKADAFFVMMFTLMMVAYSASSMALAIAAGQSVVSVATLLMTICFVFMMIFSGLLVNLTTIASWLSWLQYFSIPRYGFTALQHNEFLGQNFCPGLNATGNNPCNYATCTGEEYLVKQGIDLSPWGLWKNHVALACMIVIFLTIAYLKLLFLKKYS
Sequence of ErbB2 with Exon 20 YVMA insertion (HER2-YVMA) (P04626 other isoform, or with tags, fused parts or gaps ins YVMA behind 775): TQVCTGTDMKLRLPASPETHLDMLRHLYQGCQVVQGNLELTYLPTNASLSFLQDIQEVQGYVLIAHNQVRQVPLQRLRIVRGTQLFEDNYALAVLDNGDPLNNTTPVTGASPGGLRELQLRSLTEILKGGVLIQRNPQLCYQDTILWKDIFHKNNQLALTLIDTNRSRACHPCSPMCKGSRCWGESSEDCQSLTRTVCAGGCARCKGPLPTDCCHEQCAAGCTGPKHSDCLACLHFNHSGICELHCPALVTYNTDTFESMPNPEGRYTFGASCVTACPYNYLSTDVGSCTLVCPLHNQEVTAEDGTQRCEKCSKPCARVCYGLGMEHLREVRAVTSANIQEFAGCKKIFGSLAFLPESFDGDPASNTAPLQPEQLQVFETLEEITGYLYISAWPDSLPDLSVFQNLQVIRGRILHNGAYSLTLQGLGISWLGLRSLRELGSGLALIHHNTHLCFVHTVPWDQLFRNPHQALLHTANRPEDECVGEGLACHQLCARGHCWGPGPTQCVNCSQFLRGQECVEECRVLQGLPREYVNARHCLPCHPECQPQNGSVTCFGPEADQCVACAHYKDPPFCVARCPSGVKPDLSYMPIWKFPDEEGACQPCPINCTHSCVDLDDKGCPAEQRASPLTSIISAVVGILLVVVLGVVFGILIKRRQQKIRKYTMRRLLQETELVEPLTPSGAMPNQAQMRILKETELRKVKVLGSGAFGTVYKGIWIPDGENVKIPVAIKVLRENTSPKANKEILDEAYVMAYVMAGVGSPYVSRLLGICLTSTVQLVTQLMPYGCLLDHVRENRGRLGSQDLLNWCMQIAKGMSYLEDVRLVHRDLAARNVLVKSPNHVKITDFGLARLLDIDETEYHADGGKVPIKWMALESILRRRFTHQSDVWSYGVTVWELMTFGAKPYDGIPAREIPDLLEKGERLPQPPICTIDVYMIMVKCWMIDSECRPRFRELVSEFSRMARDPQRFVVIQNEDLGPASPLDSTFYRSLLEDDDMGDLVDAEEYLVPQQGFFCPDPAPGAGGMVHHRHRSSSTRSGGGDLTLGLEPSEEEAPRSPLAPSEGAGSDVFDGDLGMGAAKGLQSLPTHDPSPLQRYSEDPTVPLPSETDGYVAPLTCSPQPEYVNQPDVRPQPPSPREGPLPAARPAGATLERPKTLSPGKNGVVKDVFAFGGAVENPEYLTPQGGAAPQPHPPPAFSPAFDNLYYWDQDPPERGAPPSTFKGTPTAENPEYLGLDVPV
Sequence of ErbB2 WT (P04626 23-1255): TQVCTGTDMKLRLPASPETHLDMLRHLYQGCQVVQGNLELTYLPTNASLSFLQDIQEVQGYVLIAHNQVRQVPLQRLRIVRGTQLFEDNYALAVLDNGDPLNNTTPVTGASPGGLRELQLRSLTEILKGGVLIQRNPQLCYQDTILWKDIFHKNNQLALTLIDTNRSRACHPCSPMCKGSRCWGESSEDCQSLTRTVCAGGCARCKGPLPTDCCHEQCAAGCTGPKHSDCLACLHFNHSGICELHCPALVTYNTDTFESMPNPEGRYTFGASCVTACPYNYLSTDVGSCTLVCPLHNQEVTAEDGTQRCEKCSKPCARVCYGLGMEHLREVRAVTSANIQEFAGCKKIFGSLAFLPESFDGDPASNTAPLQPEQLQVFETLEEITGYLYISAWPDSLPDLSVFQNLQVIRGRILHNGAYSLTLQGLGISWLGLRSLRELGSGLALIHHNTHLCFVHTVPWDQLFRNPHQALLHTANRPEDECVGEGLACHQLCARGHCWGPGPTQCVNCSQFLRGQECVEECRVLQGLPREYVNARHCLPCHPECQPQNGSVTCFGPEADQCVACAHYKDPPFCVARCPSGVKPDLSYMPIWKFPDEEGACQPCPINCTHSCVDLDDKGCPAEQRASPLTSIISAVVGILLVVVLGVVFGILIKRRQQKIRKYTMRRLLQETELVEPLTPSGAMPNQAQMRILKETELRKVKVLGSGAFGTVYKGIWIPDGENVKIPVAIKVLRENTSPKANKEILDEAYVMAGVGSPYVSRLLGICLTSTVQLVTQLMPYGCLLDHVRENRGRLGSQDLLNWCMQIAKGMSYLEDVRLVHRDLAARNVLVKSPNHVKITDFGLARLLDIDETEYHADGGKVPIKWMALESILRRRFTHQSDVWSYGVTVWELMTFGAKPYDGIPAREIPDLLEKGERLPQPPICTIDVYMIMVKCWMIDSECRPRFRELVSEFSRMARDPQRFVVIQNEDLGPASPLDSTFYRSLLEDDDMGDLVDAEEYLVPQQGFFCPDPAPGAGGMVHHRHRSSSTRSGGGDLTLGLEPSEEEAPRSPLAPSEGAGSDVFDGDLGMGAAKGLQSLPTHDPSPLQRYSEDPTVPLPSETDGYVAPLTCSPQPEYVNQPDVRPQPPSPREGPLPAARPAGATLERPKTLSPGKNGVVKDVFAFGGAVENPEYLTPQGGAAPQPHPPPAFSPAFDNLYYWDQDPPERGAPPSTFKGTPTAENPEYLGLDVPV
Sequence of ErbB2 insYVMA (HER2-YVMA, SEQ ID NO: 2) (P04626 with tags, fused parts or gaps INS775YVMA/P1170A limits assumed): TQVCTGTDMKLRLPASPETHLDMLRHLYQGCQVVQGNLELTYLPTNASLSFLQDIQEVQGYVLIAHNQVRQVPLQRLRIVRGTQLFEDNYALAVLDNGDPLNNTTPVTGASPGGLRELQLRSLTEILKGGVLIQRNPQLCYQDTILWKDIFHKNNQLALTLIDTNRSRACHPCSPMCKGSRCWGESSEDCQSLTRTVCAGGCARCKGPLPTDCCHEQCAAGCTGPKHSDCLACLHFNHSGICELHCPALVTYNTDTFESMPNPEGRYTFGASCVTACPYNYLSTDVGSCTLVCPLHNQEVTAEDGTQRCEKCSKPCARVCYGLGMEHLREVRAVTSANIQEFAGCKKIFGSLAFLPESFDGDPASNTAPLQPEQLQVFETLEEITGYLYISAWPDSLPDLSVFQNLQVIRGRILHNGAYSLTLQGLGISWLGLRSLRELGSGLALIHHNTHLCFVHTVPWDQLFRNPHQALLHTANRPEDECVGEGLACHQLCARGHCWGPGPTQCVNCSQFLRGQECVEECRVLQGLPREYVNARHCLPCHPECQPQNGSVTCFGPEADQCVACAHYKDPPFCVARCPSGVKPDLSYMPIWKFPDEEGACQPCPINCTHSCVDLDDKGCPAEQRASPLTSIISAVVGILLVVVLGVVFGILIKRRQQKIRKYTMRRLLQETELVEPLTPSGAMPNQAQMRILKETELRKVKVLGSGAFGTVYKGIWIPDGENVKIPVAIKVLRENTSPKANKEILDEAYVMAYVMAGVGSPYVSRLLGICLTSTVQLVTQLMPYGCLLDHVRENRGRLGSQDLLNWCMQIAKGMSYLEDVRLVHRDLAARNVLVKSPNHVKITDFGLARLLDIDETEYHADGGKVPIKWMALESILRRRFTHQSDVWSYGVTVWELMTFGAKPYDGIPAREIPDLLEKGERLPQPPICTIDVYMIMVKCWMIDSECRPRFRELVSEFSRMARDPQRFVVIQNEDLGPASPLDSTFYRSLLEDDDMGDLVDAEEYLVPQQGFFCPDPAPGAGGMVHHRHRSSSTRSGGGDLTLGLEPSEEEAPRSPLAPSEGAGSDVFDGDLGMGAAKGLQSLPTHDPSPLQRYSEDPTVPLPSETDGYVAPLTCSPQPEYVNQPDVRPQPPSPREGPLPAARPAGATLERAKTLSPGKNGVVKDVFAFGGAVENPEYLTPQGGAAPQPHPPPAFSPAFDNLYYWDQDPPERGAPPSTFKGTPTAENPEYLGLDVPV
Method for BCRP: BCRP transfected MDCKII cells (Assay 8) and BCRP transfected MDCKII canine Mdr1 knockout cells (Assay 9) were cultured and plated according to manufacturer's recommendations.
Both positive and negative controls were used to assess functionality of P-gp or BCRP efflux in the assays. Stock solutions for assay controls and the test article were prepared in DMSO for final test concentration of 1 μM. Final organic concentration in the assay was 1%. All dosing solutions contained 10 μM lucifer yellow to monitor MDCKII cell monolayer integrity.
For the apical to basolateral determination (A to B), 75 μL of the test article in transport buffer were added to the apical side of the individual transwells and 250 μL of basolateral media, without compound or lucifer yellow, were added to each well. For the basolateral to apical determination (B to A), 250 μL of test article in transport buffer were added to each well and 75 μL transport buffer, without compound or lucifer yellow, were added to each transwell. All tests were performed in triplicate, and each compound was tested for both apical to basolateral and basolateral to apical transport. The plates were incubated for 2 hours on a Lab-Line Instruments Titer Orbital Shaker (VWR, West Chester, PA) at 50 rpm and 37° C. with 5% CO2. All culture plates were removed from the incubator, 50 μL of media were removed from the apical and basolateral portion of each well, and added to 150 μL of 1 μM labetalol in 2:1 acetonitrile (ACN): H2O, v/v.
The plates were read using a Molecular Devices (Sunnyvale, CA) Gemini Fluorometer to evaluate the lucifer yellow concentrations at excitation/emission wavelengths of 425/535 nm. […] The plates were sealed, and the contents of each well analyzed by LC MS/MS. The compound concentrations were determined from the ratio of the peak areas of the compound to the internal standard (labetalol) in comparison to the dosing solution.
A MDS Sciex API 4000 (Applied Biosystems, Foster City, CA) mass spectrometer was used for detection of the analytes in the ion spray positive mode. Analyte responses were measured by multiple reaction monitoring (“MRM”) of transitions unique to each compound (the protonated precursor ion and selected product ions for each test article and m/z 329 to m/z 162 for labetalol, the internal standard.
The total run time, including re-equilibration, for a single injection was 1.2 minutes. […] The total run time, including re-equilibration, for a single injection was 0.61 minutes.
An efflux ratio is calculated from the mean apical to basolateral (A-B) Papp data and basolateral to apical (B-A) Papp data: Efflux ratio=Papp(B−A)/Papp(A−B)

Usually IC50 stands for the concentration at which inhibition is half-maximal. As a reminder, the efflux ratio is the permeability from basolateral to apical divided by that in the opposite direction, in the common usage. Consider `Cc1cc(Nc2ncnc3cnc(N4CCO[C@H]5C[C@H]54)nc23)ccc1Oc1ccc2c(c1)ncn2C` (single isomer, unassigned) [Example 60a], for which the IC50 is 0.0184 µM in data set [1]; 8.28 µM against EGFR; 0.0289 µM against ErbB2 WT; at least 5 µM at EGFR wild type (EGFR WT); 0.016 µM in data set [2]. In addition, the results for the efflux ratio at 2 h, 1 μM at MDR1 (P-gp) and at BCRP were 1.8 and 1.2, respectively.
Turning to `Cc1cc(Nc2ncnc3cnc(N4CCO[C@H]5C[C@H]54)nc23)ccc1Oc1ccc2c(c1)ncn2C` (single isomer, unassigned) [Example 60b], the IC50 in data set [1] was 0.0161 µM; against EGFR it was 5.68 µM; against ErbB2 WT it was 0.0187 µM; on EGFR wild type (EGFR WT) it was at least 5 µM; in data set [2], 0.0179 µM. In addition, on MDR1 (P-gp), the “Assay 6 Pe Ratio” value came out at 1.9. Further, the “Assay 9 Pe Ratio” value on BCRP amounted to 1.4.
Consider `Cc1cc(Nc2ncnc3cnc(N(C)C4CC4)nc23)ccc1Oc1ccc2c(c1)ncn2C` [Example 31, N2-cyclopropyl-N2-methyl-N8-(3-methyl-4-((1-methyl-1H-benzo[d]imidazol-5-yl)oxy)phenyl)pyrimido[5,4-d]pyrimidine-2,8-diamine], for which the IC50 in data set [1] was 0.117 µM; against EGFR, at least 10 µM; against ErbB2 WT it was 0.158 µM; against EGFR wild type (EGFR WT), at least 5 µM; in data set [2] it was 0.0233 µM. The results for the efflux ratio at 2 h, 1 μM at MDR1 (P-gp) and at BCRP were 1.3 and 1.4, respectively.
Turning to `CON1CCN(c2ncc3ncnc(Nc4ccc(Oc5ccc6c(c5)ncn6C)c(C)c4)c3n2)CC1` [Example 35, 6-(4-methoxypiperazin-1-yl)-N-(3-methyl-4-((1-methyl-1H-benzo[d]imidazol-5-yl)oxy)phenyl)pyrimido[5,4-d]pyrimidin-4-amine], the concentration for half-maximal inhibition (IC50) is 0.0335 µM in data set [1]; at least 10 µM against EGFR; 0.0942 µM against ErbB2 WT; at least 5 µM against EGFR wild type (EGFR WT); 0.0078 µM in data set [2]. For the same compound, the efflux ratio at 2 h, 1 μM at MDR1 (P-gp) stood at 1.3; on BCRP, 1.2.
As to `Cc1cc(Nc2ncnc3cnc(N4CCC4)nc23)ccc1Oc1ccc2c(c1)ncn2C` [Example 36, 6-(azetidin-1-yl)-N-(3-methyl-4-((1-methyl-1H-benzo[d]imidazol-5-yl)oxy)phenyl)pyrimido[5,4-d]pyrimidin-4-amine], the IC50 was 0.0263 µM in data set [1]; 9 µM at EGFR; 0.0646 µM at ErbB2 WT; at least 5 µM at EGFR wild type (EGFR WT); 0.0416 µM in data set [2]. The results for the efflux ratio at 2 h, 1 μM at MDR1 (P-gp) and at BCRP were 1.2 and 0.9, respectively.
With `Cc1cc(Nc2ncnc3cnc(-c4ccncc4)nc23)ccc1Oc1ccc2c(c1)ncn2C` [Example 47, N-(3-methyl-4-((1-methyl-1H-benzo[d]imidazol-5-yl)oxy)phenyl)-6-(pyridin-4-yl)pyrimido[5,4-d]pyrimidin-4-amine bis(2,2,2-trifluoroacetate)], the IC50 in data set [1] is 0.0596 µM; at EGFR, at least 10 µM; against ErbB2 WT, 0.091 µM; on EGFR wild type (EGFR WT) it was at least 5 µM; in data set [2] it was 0.0134 µM. Also, the efflux ratio at 2 h, 1 μM on MDR1 (P-gp) turned out to be 1.1; at BCRP it was 2.3.
Regarding `Cc1cc(Nc2ncnc3cnc(-c4cnco4)nc23)ccc1Oc1ccc2c(c1)ncn2C` [Example 48, N-(3-methyl-4-((1-methyl-1H-benzo[d]imidazol-5-yl)oxy)phenyl)-6-(oxazol-5-yl)pyrimido[5,4-d]pyrimidin-4-amine], the IC50 in data set [1] is 0.0566 µM; at EGFR, at least 10 µM; against ErbB2 WT, 0.189 µM; at EGFR wild type (EGFR WT) it was at least 5 µM; in data set [2], 0.0485 µM. Moreover, the efflux ratio at 2 h, 1 μM at MDR1 (P-gp) came to 1.6; at BCRP it was 7.2.
As to `Cc1cc(Nc2ncnc3cnc(N4C[C@@H]5CC[C@H]4CO5)nc23)ccc1Oc1ccc2c(c1)ncn2C` [Example 53, 6-((1S,4S)-2-oxa-5-azabicyclo[2.2.2]octan-5-yl)-N-(3-methyl-4-((1-methyl-1H-benzo[d]imidazol-5-yl)oxy)phenyl)pyrimido[5,4-d]pyrimidin-4-amine], the half-inhibitory concentration (IC50) was 0.025 µM in data set [1]; at least 10 µM against EGFR; 0.0752 µM at ErbB2 WT; at least 5 µM against EGFR wild type (EGFR WT); 0.0427 µM in data set [2]. Further, the efflux ratio at 2 h, 1 μM turned out to be 1.7 at MDR1 (P-gp) and 1.6 on BCRP.
For `Cc1cc(Nc2ncnc3cnc(N4C[C@H]5CC[C@@H]4CO5)nc23)ccc1Oc1ccc2c(c1)ncn2C` [Example 54, 6-((1R,4R)-2-oxa-5-azabicyclo[2.2.2]octan-5-yl)-N-(3-methyl-4-((1-methyl-1H-benzo[d]imidazol-5-yl)oxy)phenyl)pyrimido[5,4-d]pyrimidin-4-amine], the half-maximal inhibitory concentration (IC50) in data set [1] was 0.0056 µM; at EGFR, 3.43 µM; against ErbB2 WT, 0.0313 µM; at EGFR wild type (EGFR WT), at least 5 µM; in data set [2] it was 0.0178 µM. In addition, the results for the efflux ratio at 2 h, 1 μM at MDR1 (P-gp) and at BCRP were 1.4 and 1.1, respectively.
For the compound `Cc1cc(Nc2ncnc3cnc(N(C)CC(F)F)nc23)ccc1Oc1ccc2c(c1)ncn2C` [Example 57, N2-(2,2-difluoroethyl)-N2-methyl-N8-(3-methyl-4-((1-methyl-1H-benzo[d]imidazol-5-yl)oxy)phenyl)pyrimido[5,4-d]pyrimidine-2,8-diamine], the IC50 in data set [1] is 0.0302 µM; at EGFR it was 6.63 µM; at ErbB2 WT it was 0.0377 µM; at EGFR wild type (EGFR WT) it was at least 5 µM; in data set [2], 0.0094 µM. The efflux ratio at 2 h, 1 μM at MDR1 (P-gp) worked out at 1.1; on BCRP, 1.4.
Regarding `Cc1cc(Nc2ncnc3cnc(N4C5CCC4COC5)nc23)ccc1Oc1ccc2c(c1)ncn2C` [Example 59, 6-(3-oxa-8-azabicyclo[3.2.1]octan-8-yl)-N-(3-methyl-4-((1-methyl-1H-benzo[d]imidazol-5-yl)oxy)phenyl)pyrimido[5,4-d]pyrimidin-4-amine], the IC50 in data set [1] is 0.0297 µM; at EGFR, at least 10 µM; against ErbB2 WT, 0.0443 µM; against EGFR wild type (EGFR WT), at least 5 µM; in data set [2], 0.0235 µM. In addition, the results for the efflux ratio at 2 h, 1 μM on MDR1 (P-gp) and at BCRP were 2 and 7.4, respectively.
In the case of `[2H]C([2H])([2H])Nc1ncc2ncnc(Nc3ccc(Oc4ccc5c(c4)ncn5C)c(C)c3)c2n1` [Example 65, N2-(methyl-d3)-N8-(3-methyl-4-((1-methyl-1H-benzo[d]imidazol-5-yl)oxy)phenyl)pyrimido[5,4-d]pyrimidine-2,8-diamine], the IC50 in data set [1] was 0.0086 µM; at EGFR, 3 µM; against ErbB2 WT, 0.023 µM; on EGFR wild type (EGFR WT), at least 5 µM; in data set [2], 0.0088 µM. Moreover, the efflux ratio at 2 h, 1 μM on MDR1 (P-gp) came out at 1.6; on BCRP it was 1.9.
Consider `[2H]c1nc(Nc2ccc(Oc3ccc4c(c3)ncn4C)c(C)c2)c2nc(N3CCOCC3)nc([2H])c2n1` [Example 68, N-(3-methyl-4-((1-methyl-1H-benzo[d]imidazol-5-yl)oxy)phenyl)-6-morpholinopyrimido[5,4-d]pyrimidin-2,8-d2-4-amine], for which the IC50 is 0.0102 µM in data set [1]; 8.23 µM against EGFR; 0.0163 µM on ErbB2 WT; at least 5 µM against EGFR wild type (EGFR WT); 0.0107 µM in data set [2]. Also, the efflux ratio at 2 h, 1 μM at MDR1 (P-gp) is 1.8; at BCRP, 0.9.
Take `Cc1cc(Nc2ncnc3cnc(N4CCO[C@@H]5C[C@@H]54)nc23)ccc1Oc1ccc2c(c1)ncn2C` [Example 199, 6-((1R,6S)-2-oxa-5-azabicyclo[4.1.0]heptan-5-yl)-N-(3-methyl-4-((1-methyl-1H-benzo[d]imidazol-5-yl)oxy)phenyl)pyrimido[5,4-d]pyrimidin-4-amine]: the 50% inhibitory concentration (IC50) is 0.0161 µM in data set [1], 5.68 µM against EGFR, at least 5 µM against EGFR wild type (EGFR WT) and 0.0179 µM in data set [2]. The figures for the efflux ratio at 2 h, 1 μM at MDR1 (P-gp) and at BCRP were 1.9 and 1.4, respectively.
